# Test results reported in patent US20050013821A1, “Mint extract and related pharmaceutical compositions” (priority 2001, published 2005).
# How the values were obtained:
# [1] = Solubility of menthol in composition ingredients; format: physicochemical; conditions: in liquid paraffin, white soft paraffin and essential oils
# [2] = system: burning pain sensations in the vicinity of the vulva or anus; assay: Other trials of mint extract compositions (gel, cream, wipes, spray) applied topically against burning pains; format: in vivo, human
# Method: The composition may comprise the extract or equivalent up to 10% w/w but it is preferably present in a concentration of not more than substantially 5% w/w of the composition.
# Additional to these trials, compositions were prepared using menthol (and others using peppermint oil) embodied in a light cream (which included water) with which small pieces of soft cloth were impregnated to form wipes. […] Alternative combinations of ingredients could be utilised, e.g. as known to those skilled in the art, possibly including a pharmaceutically acceptable excipient for the active ingredient/s. Preferably, the composition should contain one or more of vitamins E, A and D combined with a moisturizing element in white soft paraffin form (obtained as “Vaseline”, Registered Trade Mark in the UK) or aloe form for delicate skins. The composition should preferably be formulated so that it is effectively greaseless and non-staining. It should not contain hexachlorophene.
compound,measurement,setting,value
CC1CCC(C(C)C)C(O)C1 (centres unmarked) [menthol],solubility,[1],at least 10 % w/w
same,outcome of trials as wipes,[2]; light cream (including water) impregnated on pieces of soft cloth,just as successful
same,relief compared with peppermint oil,[2]; menthol used instead of peppermint oil,Much improved relief
same,outcome of trials as spray,"[2]; spray including glycols, glycerol and ethanol",used successfully
same,effect relative to peppermint oil,"[2]; summary statement, related mint extracts",substantially more
